Measured values as given in patent US20090176817A1, “Method of Treatment of Diarrhea-Predominant Irritable Bowel Syndrome in a Subject” (priority 2005, published 2009).
Marks after values point to notes of the source that are not given here.

Assays:
[1] = Study S241.1.111: relative bioavailability and food effect, 2 mg tablet vs oral solution; type: in vivo, human; details: for Tmax: median
Description: Subjects were randomized to receive a cilansetron 2 mg tablet after an overnight fast, a cilansetron 2 mg tablet after a high-fat breakfast, and a cilansetron 2 mg oral solution after an overnight fast during the three treatment periods, with a 7-day washout between periods. Serial blood sampling was performed up to 24 hours following each treatment, and plasma pharmacokinetics parameters for cilansetron and its metabolites, (4R)-hydroxy cilansetron and (4S)-hydroxy cilansetron, were estimated. FIG. 4, FIG. 5, and FIG. 6 present mean plasma concentration-time profiles for cilansetron and its metabolites following treatment with the cilansetron tablet and oral solution. Table 2.7.1.2.2 presents descriptive statistics for the pharmacokinetic parameters of cilansetron and its metabolites for the tablet and oral solution, and the results of statistical comparisons between treatments (tablet versus solution).
Subjects were randomized to receive a cilansetron 2 mg tablet after an overnight fast, a cilansetron 2 mg tablet after a high-fat breakfast, and a cilansetron 2 mg oral solution after an overnight fast during the three treatment periods, with a 7-day washout between periods. Serial blood sampling was performed up to 24 hours following each treatment and plasma pharmacokinetics parameters for cilansetron and its metabolites, (4R)-hydroxy cilansetron and (4S)-hydroxy cilansetron, were estimated. FIG. 7, FIG. 8, and FIG. 9 present mean plasma concentration-time profiles for cilansetron and its metabolites following treatment with the cilansetron tablet under fasted conditions and following a high-fat meal. Table 2.7.1.2.4 presents descriptive statistics for the pharmacokinetic parameters of cilansetron and its metabolites for the tablet under fed and fasted conditions, and the results of statistical comparisons between treatments (fed versus fasted).

[2] = Study S.241.1.109: single and multiple dose pharmacokinetics 2 mg TID; type: in vivo, human; details: for Tmax: median (min, max)
Description: In an open-label, randomized, parallel-group study in 36 healthy, male and female subjects (19-45 years), subjects received a 2 mg single dose of cilansetron on Day 1 and 2 mg TID on Days 2-7. The morning doses on Days 1 and 7 were administered immediately after a standard breakfast. Serial blood samples for the measurement of single-dose and steady-state pharmacokinetics of cilansetron and its main metabolites, (4R)-hydroxy cilansetron and (4S)-hydroxy cilansetron, were collected on Day 1 (single dose) up to 24 hours postdose and on Day 7 (multiple dose) up to 8 hours postdose.

[3] = target: T1, human P-glycoprotein (Homo sapiens, UniProt P08183); assay: Study K.241.6026: in vitro transport by P-glycoprotein in PK 1 LLC MDR cells; type: in vitro ADME; details: arithmetic mean percentages transported, 3 hours of incubation
T1 construct: expressed in transfected cells; host or cells: PK 1 LLC MDR cells (LLC-PK1 porcine kidney cells expressing human MDR1, by own knowledge)

[4] = target: T2, human 5-HT3 receptor (Homo sapiens, UniProt P46098); assay: 5-HT3 receptor binding
T2 sequence (P46098 24-478): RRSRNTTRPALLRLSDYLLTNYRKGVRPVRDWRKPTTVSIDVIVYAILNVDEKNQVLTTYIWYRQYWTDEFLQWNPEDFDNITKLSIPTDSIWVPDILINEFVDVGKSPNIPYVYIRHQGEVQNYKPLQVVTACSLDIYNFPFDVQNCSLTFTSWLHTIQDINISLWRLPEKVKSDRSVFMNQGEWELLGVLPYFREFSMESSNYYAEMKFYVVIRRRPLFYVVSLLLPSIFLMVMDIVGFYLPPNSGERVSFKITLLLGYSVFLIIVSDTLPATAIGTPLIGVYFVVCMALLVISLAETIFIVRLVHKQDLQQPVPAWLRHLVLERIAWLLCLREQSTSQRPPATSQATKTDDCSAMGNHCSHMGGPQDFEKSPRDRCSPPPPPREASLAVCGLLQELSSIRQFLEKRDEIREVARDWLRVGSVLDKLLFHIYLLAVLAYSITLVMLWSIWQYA

[5] = Study S.241.1.109: interaction with paroxetine 20 mg QD; type: in vivo, human; details: for AUC(0-τ) / Cmax / Tmax: steady state; for AUC(0-τ): AUC(0-8); for AUC(0-τ) / Cmax: arith. mean; for Tmax: median
Description: In an open-label, randomized, parallel-group study in three groups of 12 healthy, male and female subjects (aged 19 to 45 years), subjects received a 2 mg single dose of cilansetron on Day 1, 2 mg TID on Days 2-13, and a 2 mg single dose on Day 14. […] All morning doses of cilansetron and enzyme inhibitors were administered immediately after a standard breakfast. […] For each treatment group, log-transformed cilansetron AUC(0-τ) and Cmax values on Day 14 (cilansetron+enzyme inhibitor) were compared statistically versus values on Day 7 (cilansetron alone).
FIG. 50, FIG. 51, and FIG. 52 present geometric mean steady-state plasma concentration-time profiles for cilansetron and its 4-hydroxy metabolites in the absence and presence of concomitant paroxetine. […] These increases in exposure are not clinically significant.

[6] = 2 mg tablet, fasted, single dose
[7] = Cilansetron 2 mg TID + Paroxetine 20 mg QD
[8] = Cilansetron 2 mg TID alone (paroxetine group)
[9] = cilansetron + paroxetine / cilansetron alone, ANOVA of log-transformed data

T1 sequence (P08183 whole entry): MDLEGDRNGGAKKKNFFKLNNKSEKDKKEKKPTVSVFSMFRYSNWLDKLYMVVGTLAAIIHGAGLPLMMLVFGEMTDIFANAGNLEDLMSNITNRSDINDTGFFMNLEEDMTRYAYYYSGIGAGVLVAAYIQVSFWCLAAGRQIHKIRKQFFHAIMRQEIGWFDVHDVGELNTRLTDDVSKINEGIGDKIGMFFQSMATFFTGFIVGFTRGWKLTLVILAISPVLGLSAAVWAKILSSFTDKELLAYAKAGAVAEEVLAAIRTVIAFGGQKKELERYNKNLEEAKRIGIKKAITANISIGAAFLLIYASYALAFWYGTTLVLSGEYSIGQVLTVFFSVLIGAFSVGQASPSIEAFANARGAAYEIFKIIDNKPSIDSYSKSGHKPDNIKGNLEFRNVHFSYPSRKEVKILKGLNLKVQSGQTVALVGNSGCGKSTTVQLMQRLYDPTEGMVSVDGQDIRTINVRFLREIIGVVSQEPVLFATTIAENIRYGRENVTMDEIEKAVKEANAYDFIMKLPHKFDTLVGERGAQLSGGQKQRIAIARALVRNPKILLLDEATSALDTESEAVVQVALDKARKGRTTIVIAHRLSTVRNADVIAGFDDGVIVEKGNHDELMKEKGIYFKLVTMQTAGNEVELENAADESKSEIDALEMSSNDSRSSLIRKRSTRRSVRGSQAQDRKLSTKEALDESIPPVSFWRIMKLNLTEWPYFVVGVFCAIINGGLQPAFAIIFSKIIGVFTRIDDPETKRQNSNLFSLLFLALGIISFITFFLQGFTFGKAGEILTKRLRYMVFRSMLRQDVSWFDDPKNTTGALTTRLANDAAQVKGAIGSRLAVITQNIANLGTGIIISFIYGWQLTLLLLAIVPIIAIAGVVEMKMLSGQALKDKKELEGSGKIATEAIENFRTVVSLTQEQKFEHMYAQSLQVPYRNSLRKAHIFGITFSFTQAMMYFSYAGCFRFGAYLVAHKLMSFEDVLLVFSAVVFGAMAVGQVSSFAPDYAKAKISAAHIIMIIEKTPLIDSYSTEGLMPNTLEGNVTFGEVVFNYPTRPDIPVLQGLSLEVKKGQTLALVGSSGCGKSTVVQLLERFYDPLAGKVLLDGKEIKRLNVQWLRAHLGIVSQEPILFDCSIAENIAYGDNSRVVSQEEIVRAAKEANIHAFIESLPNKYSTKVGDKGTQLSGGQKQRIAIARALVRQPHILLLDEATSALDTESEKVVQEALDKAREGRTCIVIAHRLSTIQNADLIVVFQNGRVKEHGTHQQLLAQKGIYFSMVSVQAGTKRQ

Cc1nccn1CC1CCc2c(c3cccc4c3n2CC[C@H]4O)C1=O (stereo partly drawn) [(4R)-hydroxy cilansetron]
AUC(0-inf) ([1]; 2 mg oral solution, fasted): 14.3 (26) ng · h/mL | AUC(0-last) ([1]; 2 mg oral solution, fasted): 13.5 (27) ng · h/mL | Cmax ([1]; 2 mg oral solution, fasted): 2.82 (26) ng/mL | T½ ([1]; 2 mg oral solution, fasted): 3.90 (19) h | Tmax ([1]; 2 mg oral solution, fasted): 1.00 h | AUC(0-inf) [1, 6]: 14.4 (25) ng · h/mL | AUC(0-last) [1, 6]: 13.7 (26) ng · h/mL | Cmax [1, 6]: 2.87 (20) ng/mL | T½ [1, 6]: 3.90 (22) h | Tmax ([1]; 2 mg tablet, fasted): 1.25 h | AUC(0-inf) ([1]; 2 mg tablet, fed): 13.6 (26) ng · h/mL | Cmax ([1]; 2 mg tablet, fed): 2.23 (26) ng/mL | T½ ([1]; 2 mg tablet, fed): 4.46 (31) h | AUC(0-last) ([1]; 2 mg tablet, fed (high-fat breakfast)): 12.8 (27) ng · h/mL | Tmax ([1]; 2 mg tablet, fed): 1.75 h | AUC(0-τ) ([2]; 2 mg TID, Day 7): 12.9 (18) ng · h/mL | Cmax ([2]; 2 mg TID, Day 7): 2.66 (22) ng/mL | AUC(0-inf) ([2]; 2 mg single dose, Day 1): 11.7 (18) ng · h/mL | AUC(0-τ) ([2]; 2 mg single dose, Day 1): 8.43 (21) ng · h/mL | Cmax ([2]; 2 mg single dose, Day 1): 1.92 (27) ng/mL | T½ ([2]; 2 mg single dose, Day 1): 3.89 (15) h | AUC accumulation ratio Day 7/Day 1 ([2]; AUC(0-τ)): 147^d % | Linearity Ratio ([2]; AUC(0-τ) Day 7 to AUC(0-inf) Day 1): 107% | Tmax ([2]; Day 1): 2.00 (0.50, 4.00)^b h | Accumulation following TID dosing (mean increase) ([2]; Day 7:Day 1, AUC(0-τ) and Cmax): 35-47% | Tmax ([2]; Day 7): 2.00 (0.75, 4.00)^b h | Time of peak concentration ([2]; after cilansetron dosing): approximately 2 hours | half-life ([2]; approximate mean): approximately 4 hours | AUC(0-τ) (Day 7) to AUC(0-inf) (Day 1) mean ratio ([2]; human, in vivo): 1.07 | Cmax accumulation ratio Day 7/Day 1 ([2]; human, in vivo): 135^e % | Membrane Passage [3]: 14% | pKi [4]: 8.5 | AUC(0-τ) [5, 7]: 15.2 ng·h/mL | Cmax [5, 7]: 3.41 ng/mL | Tmax [5, 7]: 1.50 h | AUC(0-τ) [5, 8]: 13.5 ng·h/mL | Cmax [5, 8]: 2.76 ng/mL | Tmax [5, 8]: 2.50 h | AUC(0-τ) Ratio (Treatment B/A) [5, 9]: 116% | Cmax Ratio (Treatment B/A) [5, 9]: 127% | Mean AUC increase with paroxetine ([5]; human, in vivo): 16% | Mean Cmax increase with paroxetine ([5]; human, in vivo): 27%
